Laboratory results published in ChEMBL document CHEMBL4765419, “Design, synthesis and bioactivity evaluation of novel arylalkene-amide derivatives as dual-target antifungal inhibitors” (Eur J Med Chem, 2020).
One block for each compound: values may come before it. The source made the active and inactive calls. The calls are words filed in the database; no cut-off is given here.

Experiments:
Candida albicans [1] = experiment: Antifungal activity against Candida albicans assessed as inhibition of microbial growth by two fold broth microdilution method; assay type: functional
Pichia kudriavzevii = experiment: Antifungal activity against Candida krusei assessed as inhibition of microbial growth by two fold broth microdilution method; assay type: functional
Nakaseomyces glabratus = experiment: Antifungal activity against Candida glabrata assessed as inhibition of microbial growth by two fold broth microdilution method; assay type: functional
Aspergillus fumigatus = experiment: Antifungal activity against Aspergillus fumigatus assessed as inhibition of microbial growth by two fold broth microdilution method; assay type: functional
Candida tropicalis = experiment: Antifungal activity against Candida tropicalis assessed as inhibition of microbial growth by two fold broth microdilution method; assay type: functional
Candida albicans [2] = experiment: Antifungal activity against fluconazole-resistant Candida albicans 17# assessed as inhibition of microbial growth by two fold broth microdilution method; assay type: functional
Candida albicans [3] = experiment: Antifungal activity against fluconazole-resistant Candida albicans CaR assessed as inhibition of microbial growth by two fold broth microdilution method; assay type: functional
Candida albicans [4] = experiment: Antifungal activity against fluconazole-resistant Candida albicans 632 assessed as inhibition of microbial growth by two fold broth microdilution method; assay type: functional
Candida albicans [5] = experiment: Antifungal activity against fluconazole-resistant Candida albicans 901 assessed as inhibition of microbial growth by two fold broth microdilution method; assay type: functional
Candida albicans [6] = experiment: Antifungal activity against fluconazole-resistant Candida albicans 904 assessed as inhibition of microbial growth by two fold broth microdilution method; assay type: functional
Candida albicans [7] = experiment: Antifungal activity against Candida albicans ATCC SC5314 assessed as decrease in fungal cell density by polarizing microscopy; assay type: functional, organism-based
Candida albicans [8] = experiment: Antifungal activity against Candida albicans ATCC SC5314 assessed as irregular cell structure at 4 ug/ml incubated for 72 hrs by TEM analysis; assay type: functional, organism-based; settings: dose 4.0 µg/ml
Candida albicans [9] = experiment: Antifungal activity against Candida albicans ATCC SC5314 assessed as disappearance of fungal cell boundaries at 4 ug/ml incubated for 72 hrs by TEM analysis; assay type: functional, organism-based; settings: dose 4.0 µg/ml
Candida albicans [10] = experiment: Antifungal activity against Candida albicans ATCC SC5314 assessed as loss of cell permeability at 4 ug/ml incubated for 72 hrs by TEM analysis; assay type: functional, organism-based; settings: dose 4.0 µg/ml
Candida albicans [11] = experiment: Antifungal activity against Candida albicans ATCC SC5314 assessed as leakage of endogenous substances at 4 ug/ml incubated for 72 hrs by TEM analysis; assay type: functional, organism-based; settings: dose 4.0 µg/ml
Candida albicans [12] = experiment: Antifungal activity against Candida albicans ATCC SC5314 assessed as vesicles formation at 4 ug/ml incubated for 72 hrs by TEM analysis; assay type: functional, organism-based; settings: dose 4.0 µg/ml
Candida albicans [13] = experiment: Antifungal activity against Candida albicans ATCC SC5314 assessed as edema cavitation at 4 ug/ml incubated for 72 hrs by TEM analysis; assay type: functional, organism-based; settings: dose 4.0 µg/ml
Candida albicans [14] = experiment: Antifungal activity against Candida albicans ATCC SC5314 assessed as nuclear membrane cleavage at 4 ug/ml incubated for 72 hrs by TEM analysis; assay type: functional, organism-based; settings: dose 4.0 µg/ml
Candida albicans [15] = experiment: Antifungal activity against Candida albicans ATCC SC5314 assessed as cell lysis at 4 ug/ml […] by TEM analysis; assay type: functional, organism-based; settings: dose 4.0 µg/ml
Candida albicans SC5314 [16] = experiment: Inhibition of SE/CYP51 in Candida albicans ATCC SC5314 assessed as ergosterol level at 4 ug/ml incubated for 16 hrs by LC/MS analysis (reference value: 79.43 %); set-up: scale not given: the % may be the effect or the level left; settings: dose 4.0 µg/ml
Candida albicans SC5314 [17] = experiment: Inhibition of SE/CYP51 in Candida albicans ATCC SC5314 assessed as lanosterol level at 4 ug/ml incubated for 16 hrs by LC/MS analysis (reference value: 6.62 %); set-up: scale not given: the % may be the effect or the level left; settings: dose 4.0 µg/ml
Candida albicans SC5314 [18] = experiment: Inhibition of SE/CYP51 in Candida albicans ATCC SC5314 assessed as eburicol level at 4 ug/ml incubated for 16 hrs by LC/MS analysis (reference value: 4.67 %); set-up: scale not given: the % may be the effect or the level left; settings: dose 4.0 µg/ml
Candida albicans SC5314 [19] = experiment: Inhibition of SE/CYP51 in Candida albicans ATCC SC5314 assessed as squalene level at 4 ug/ml incubated for 16 hrs by LC/MS analysis (reference value: 2.25 %); set-up: scale not given: the % may be the effect or the level left; settings: dose 4.0 µg/ml
Candida albicans SC5314 [20] = experiment: Inhibition of SE/CYP51 in Candida albicans ATCC SC5314 assessed as unidentified sterol level at 4 ug/ml incubated for 16 hrs by LC/MS analysis (reference value: 7.03 %); set-up: scale not given: the % may be the effect or the level left; settings: dose 4.0 µg/ml
[21] = Stability in human plasma incubated for 60 mins; assay type: ADME, cell-free; settings: read-out: Stabilty
[22] = Stability in human plasma incubated for 120 mins; assay type: ADME, cell-free; settings: read-out: Stabilty
Candida albicans [23] = experiment: In vivo antifungal activity against Candida albicans infected in mouse assessed as reduction in tissue infection injected via abdomen for 7 days by H and E staining based histological analysis; assay type: functional, organism-based; settings: time 7.0 day
Candida albicans [24] = experiment: In vivo antifungal activity against Candida albicans infected in mouse assessed as uniform cell distribution injected via abdomen for 7 days by H and E staining based histological analysis; assay type: functional, organism-based; settings: time 7.0 day
Candida albicans [25] = experiment: In vivo antifungal activity against Candida albicans infected in mouse assessed as disappearance of infected positions injected via abdomen for 7 days by H and E staining based histological analysis; assay type: functional, organism-based; settings: time 7.0 day
Candida albicans [26] = experiment: In vivo antifungal activity against Candida albicans infected in mouse assessed as disappearance of cell nuclear aggregation injected via abdomen for 7 days by H and E staining based histological analysis; assay type: functional, organism-based; settings: time 7.0 day
[27] = Toxicity in mouse infected with Candida albicans assessed as change in body weight administered via abdomen for 7 days; settings: in vivo, ip, 168 h, time 7 day
[28] = Toxicity in mouse infected with Candida albicans assessed as change in heart morphology administered via abdomen for 7 days by H and E staining based histological analysis; settings: in vivo, ip, 168 h, time 7 day
[29] = Toxicity in mouse infected with Candida albicans assessed as change in liver morphology administered via abdomen for 7 days by H and E staining based histological analysis; settings: in vivo, ip, 168 h, time 7 day
[30] = Toxicity in mouse infected with Candida albicans assessed as change in spleen morphology administered via abdomen for 7 days by H and E staining based histological analysis; settings: in vivo, ip, 168 h, time 7 day
[31] = Toxicity in mouse infected with Candida albicans assessed as change in kidney morphology administered via abdomen for 7 days by H and E staining based histological analysis; settings: in vivo, ip, 168 h, time 7 day
[32] = Toxicity in mouse infected with Candida albicans assessed as change in lung morphology administered via abdomen for 7 days by H and E staining based histological analysis; settings: in vivo, ip, 168 h, time 7 day
[33] = Hepatotoxicity in mouse infected with Candida albicans assessed as aspartate aminotransferase level in plasma administered via abdomen for 7 days (reference value: 109.4 +/-4.8 IU/L); assay type: toxicity; settings: ip, 168 h, time 7 day
[34] = Hepatotoxicity in mouse infected with Candida albicans assessed as effect on alanine aminotransferase level in plasma administered via abdomen for 7 days (reference value: 102 +/-9.2 IU/L); assay type: toxicity; settings: ip, 168 h, time 7 day
[35] = Renal toxicity in mouse infected with Candida albicans assessed as effect on blood urea nitrogen level administered via abdomen for 7 days (reference value: 6.7 +/-0.3 mmol/L); settings: in vivo, ip, 168 h, time 7 day

Compound: O=C(NCc1cccnc1)C(=O)N/N=C/c1ccc2ccccc2c1
MIC (Candida albicans [1]): 1 µg/mL
MIC (Pichia kudriavzevii): 0.5 µg/mL
MIC (Nakaseomyces glabratus): 0.25 µg/mL
MIC (Aspergillus fumigatus): 8 µg/mL
MIC (Candida tropicalis): 0.25 µg/mL

Compound: CN(CC(=O)NCc1cccnc1)C(=O)/C=C/c1cccc2ccccc12
MIC (Candida albicans [1]): 0.5 µg/mL
MIC (Pichia kudriavzevii): 0.25 µg/mL
MIC (Nakaseomyces glabratus): 0.5 µg/mL
MIC (Aspergillus fumigatus): > 16 µg/mL
MIC (Candida tropicalis): 0.5 µg/mL

Compound: O=C(/C=C/c1ccc2ccccc2c1)NC(Cn1ccnc1)C(=O)Nc1ccccc1 (centres undefined)
MIC (Candida albicans [1]): 0.5 µg/mL
MIC (Pichia kudriavzevii): 0.5 µg/mL
MIC (Nakaseomyces glabratus): 0.25 µg/mL
MIC (Aspergillus fumigatus): 8 µg/mL
MIC (Candida tropicalis): 0.5 µg/mL

Compound: O=C(/C=C/c1ccc2c(c1)OCCO2)NC(Cn1ccnc1)C(=O)NCc1ccccc1 (centres undefined)
MIC (Candida albicans [1]): 0.5 µg/mL
MIC (Pichia kudriavzevii): 2 µg/mL
MIC (Nakaseomyces glabratus): 1 µg/mL
MIC (Aspergillus fumigatus): > 16 µg/mL
MIC (Candida tropicalis): 0.5 µg/mL

Compound: O=C(NCc1cccnc1)C(=O)N/N=C/c1ccc2c(c1)OCCO2
MIC (Candida albicans [1]): 0.5 µg/mL
MIC (Pichia kudriavzevii): 2 µg/mL
MIC (Nakaseomyces glabratus): 0.5 µg/mL
MIC (Aspergillus fumigatus): > 16 µg/mL
MIC (Candida tropicalis): 1 µg/mL

Compound: O=C(NCc1ccncc1)C(=O)N/N=C/c1cccc2ccccc12
MIC (Candida albicans [1]): 0.125 µg/mL
MIC (Pichia kudriavzevii): 0.5 µg/mL
MIC (Nakaseomyces glabratus): 0.25 µg/mL
MIC (Aspergillus fumigatus): 2 µg/mL
MIC (Candida tropicalis): 0.125 µg/mL
MIC (Candida albicans [2]): 4 µg/mL
MIC (Candida albicans [3]): 4 µg/mL
MIC (Candida albicans [4]): 8 µg/mL
MIC (Candida albicans [5]): 4 µg/mL
MIC (Candida albicans [6]): 8 µg/mL
Activity (Candida albicans [7]): Active
Activity (Candida albicans [8]): Active
Activity (Candida albicans [9]): Active
Activity (Candida albicans [10]): Active
Activity (Candida albicans [11]): Active
Activity (Candida albicans [12]): Active
Activity (Candida albicans [13]): Active
Activity (Candida albicans [14]): Active
Activity (Candida albicans [15]): Active
Activity (Candida albicans SC5314 [16]): 8.27%
Activity (Candida albicans SC5314 [17]): 11.3%
Activity (Candida albicans SC5314 [18]): 32.8%
Activity (Candida albicans SC5314 [19]): 42.9%
Activity (Candida albicans SC5314 [20]): 4.71%
remaining at 1 h [21]: 92.3%
remaining at 2 h [22]: 86.5%
Activity (Candida albicans [23]): Active
Activity (Candida albicans [24]): Active
Activity (Candida albicans [25]): Active
Activity (Candida albicans [26]): Active
Activity [27]: Non-Toxic
Activity [28]: Non-Toxic
Activity [29]: Non-Toxic
Activity [30]: Non-Toxic
Activity [31]: Non-Toxic
Activity [32]: Non-Toxic
Activity [33]: 112.7 IU/L
Activity [34]: 117 IU/L
Activity [35]: 7.1 mmol/L

Compound: O=C(NCc1cccnc1)C(=O)N/N=C/c1cccc2ccccc12
MIC (Candida albicans [1]): 0.5 µg/mL
MIC (Pichia kudriavzevii): 0.25 µg/mL
MIC (Nakaseomyces glabratus): 0.5 µg/mL
MIC (Aspergillus fumigatus): > 16 µg/mL
MIC (Candida tropicalis): 0.5 µg/mL

Next, values leading:

MIC (Candida albicans [1]): 0.5 µg/mL
MIC (Pichia kudriavzevii): 2 µg/mL
MIC (Nakaseomyces glabratus): 0.5 µg/mL
MIC (Aspergillus fumigatus): > 16 µg/mL
MIC (Candida tropicalis): 2 µg/mL
Compound: O=C(/C=C/c1ccc2ccccc2c1)NCC(=O)NCc1cccnc1

MIC (Candida albicans [1]): 0.25 µg/mL
MIC (Pichia kudriavzevii): 1 µg/mL
MIC (Nakaseomyces glabratus): 0.5 µg/mL
MIC (Aspergillus fumigatus): > 16 µg/mL
MIC (Candida tropicalis): 0.25 µg/mL
Compound: O=C(/C=C/c1ccc2c(c1)OCCO2)NC(Cn1ccnc1)C(=O)Nc1ccccc1 (centres undefined)

MIC (Candida albicans [1]): 0.125 µg/mL
MIC (Pichia kudriavzevii): 0.5 µg/mL
MIC (Nakaseomyces glabratus): 0.25 µg/mL
MIC (Aspergillus fumigatus): 4 µg/mL
MIC (Candida tropicalis): 0.25 µg/mL
Compound: CN(CC(=O)NCc1ccncc1)C(=O)/C=C/c1cccc2ccccc12

MIC (Candida albicans [1]): 0.25 µg/mL
MIC (Pichia kudriavzevii): 0.5 µg/mL
MIC (Nakaseomyces glabratus): 0.25 µg/mL
MIC (Aspergillus fumigatus): 4 µg/mL
MIC (Candida tropicalis): 0.25 µg/mL
Compound: O=C(/C=C/c1cccc2ccccc12)NCC(=O)NCc1ccncc1

MIC (Candida albicans [1]): 0.25 µg/mL
MIC (Pichia kudriavzevii): 0.25 µg/mL
MIC (Nakaseomyces glabratus): 0.5 µg/mL
MIC (Aspergillus fumigatus): > 16 µg/mL
MIC (Candida tropicalis): 0.5 µg/mL
Compound: O=C(NCc1ccncc1)C(=O)N/N=C/c1ccc2ccccc2c1
